This passage reports EC50 results from patent US20090105124A1, “HETEROCYCLIC MODULATORS OF TGR5” (Kalypsys, Inc., priority 2007, published 2009).

Structures are written as SMILES. pEC50: −log10 of the molar value.

The target of this assay is T1, human TGR5 (Homo sapiens, UniProt Q8TDU6).
T1 construct: expressed in transfected cells
T1 sequence (Q8TDU6 1-330): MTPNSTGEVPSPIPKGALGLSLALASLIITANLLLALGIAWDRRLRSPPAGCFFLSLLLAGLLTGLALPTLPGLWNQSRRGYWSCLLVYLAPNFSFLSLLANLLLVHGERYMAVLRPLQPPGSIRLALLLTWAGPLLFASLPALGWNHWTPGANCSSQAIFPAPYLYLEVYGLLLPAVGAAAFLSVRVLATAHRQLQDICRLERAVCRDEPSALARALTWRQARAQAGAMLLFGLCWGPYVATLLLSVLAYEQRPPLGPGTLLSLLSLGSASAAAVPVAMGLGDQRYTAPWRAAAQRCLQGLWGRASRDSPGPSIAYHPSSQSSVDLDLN
Kind of assay: cAMP production assay in HEK293 cells stably expressing TGR5 (LANCE cAMP, TR-FRET). The class given is cell-based. As to conditions: stimulated with test compounds for 30 minutes, 1 mM IBMX, read-out: cAMP Production in 293-TGR5 Cells. As to the method: HEK293 cells stably expressing TGR5 (HEK293-TGR5) were established by stably transfecting HEK-293 cells with an expression vector (pcDNA 3.1, Invetrogen) inserted with human TGR5 cDNA using Fugene6 (Roche, Indianapolis, Ind.) according to conventional methods. Cells were grown in DMEM (invitrogen, Carlsbad, Calif.) supplemented with 10% FBS, 1% penicillin/streptomycin under geneticin selection. The presence of TGR5 transcripts in these cells was confirmed using branched DNA (bDNA, Genospectra, Inc., Fremont Calif.) following the manufacturer's protocol and using specific probes for human TGR5. cAMP production assay was performed in high throughput 1536 well format using LANCE cAMP detection kit (Perkin Elmer Inc., Boston, Mass.) according to the manufacturer's protocol. Briefly, HEK293-TGR5 cells were harvested using non-enzymatic cell dissociation buffer (Invitrogen, Carlsbad, Calif.) and suspended in DMEM supplemented with 0.1% FBS at a density of 800,000 cells/ml. Alexa antibody was added to the cell suspension, and 4 ul of the mixture was dispensed in white opaque tissue culture treated Greiner 1536 well plates (USA Scientific, Inc., Ocala, Fla.). After an overnight incubation at 37 C in an atmosphere of 10% CO2 and 95% humidity, 1 ul of 5 mM IBMX (Sigma, St. Louis, Mo.) solution in DMEM was dispensed for a final concentration of 1 mM. Cells were then stimulated with test compounds for 30 minutes, after which time 5 ul of detection reagent was added and incubated for 1-7 hrs at room temperature. TR-FRET signal was detected using the Viewlux (Perkin Elmer Inc., Boston Mass.). EC50 values were determined using Graph Pad Prizm analysis (GraphPad Software, Inc). The EC50 values for a wide range of bile acids generated from this assay were in agreement with the values published in the scientific literature. […] The symbol (+) denotes an EC50 value of ≦10 μM while the symbol (−) denotes an EC50 value of >10 μM (see Table 1).
(In general: Cyclic AMP is a second messenger, typically raised through Gs and lowered through Gi signalling.)
Take `O=c1c2cccnc2nc(-c2cncc(Cl)c2)n1NCc1ccc(Cl)cc1F` [Example 1, 3-{[(4-Chloro-2-fluorophenyl)methyl]amino}-2-(5-chloropyridin-3-yl)-3H,4H-pyrido[2,3-d]pyrimidin-4-one]: the pEC50 is not below 5.00.
The result for `O=c1c2cccnc2nc(-c2ccccc2F)n1NCc1ccc(Cl)cc1` [Example 2, 3-{[(4-Chlorophenyl)methyl]amino}-2-(2-fluorophenyl)-3H,4H-pyrido[2,3-d]pyrimidin-4-one] reads not below 5.00.
The result for `COc1cccc(-c2nc3ncccc3c(=O)n2NCc2ccc(Cl)cc2)c1` [Example 3, 3-{[(4-Chlorophenyl)methyl]amino}-2-(3-methoxyphenyl)-3H,4H-pyrido[2,3-d]pyrimidin-4-one] reads not below 5.00; that for `O=c1c2cccnc2nc(-c2ccc(F)cc2)n1NCc1ccc(Br)cc1` [Example 4, 3-{[(4-Bromophenyl)methyl]amino}-2-(4-fluorophenyl)-3H,4H-pyrido[2,3-d]pyrimidin-4-one], not below 5.00; that for `COc1ccc(-c2nc3ncccc3c(=O)n2NCc2ccc(Br)cc2)cc1` [Example 5, 3-{[(4-Bromophenyl)methyl]amino}-2-(4-methoxyphenyl)-3H,4H-pyrido[2,3-d]pyrimidin-4-one], not below 5.00.
The result for `O=c1c2cccnc2nc(-c2ccc(O)cc2)n1NCc1ccc(Br)cc1` [Example 6, 3-{[(4-Bromophenyl)methyl]amino}-2-(4-hydroxyphenyl)-3H,4H-pyrido[2,3-d]pyrimidin-4-one] reads not below 5.00; that for `O=c1c2cccnc2nc(-c2cccnc2)n1NCc1ccc(Cl)cc1` [Example 7, 3-{[(4-Chlorophenyl)methyl]amino}-2-(pyridin-3-yl)-3H,4H-pyrido[2,3-d]pyrimidin-4-one], not below 5.00.
For the compound `O=c1c2cccnc2nc(-c2cncc(Cl)c2)n1NCc1ccc(Cl)cc1` [Example 8, 3-{[(4-Chlorophenyl)methyl]amino}-2-(5-chloropyridin-3-yl)-3H,4H-pyrido[2,3-d]pyrimidin-4-one], the pEC50 is not below 5.00.
As for `COc1cncc(-c2nc3ncccc3c(=O)n2NCc2ccc(Cl)cc2)c1` [Example 9, 3-{[(4-Chlorophenyl)methyl]amino}-2-(5-methoxypyridin-3-yl)-3H,4H-pyrido[2,3-d]pyrimidin-4-one], the pEC50 is not below 5.00.
The result for `O=c1c2cccnc2nc(-c2ccc(F)cc2)n1NCc1ccc(Cl)cc1` [Example 10, 3-{[(4-Chlorophenyl)methyl]amino}-2-(4-fluorophenyl)-3H,4H-pyrido[2,3-d]pyrimidin-4-one] reads not below 5.00; that for `O=c1c2cccnc2nc(-c2ccc(F)cc2)n1NCc1ccc(C(F)(F)F)cc1` [Example 11, 2-(4-Fluorophenyl)-3-({[4-(trifluoromethyl)phenyl]methyl}amino)-3H,4H-pyrido[2,3-d]pyrimidin-4-one], not below 5.00; that for `O=c1c2cccnc2nc(-c2ccc(F)cc2)n1NCc1ccc(F)c(F)c1` [Example 12, 3-{[(3,4-Difluorophenyl)methyl]amino}-2-(4-fluorophenyl)-3H,4H-pyrido[2,3-d]pyrimidin-4-one], not below 5.00.
Turning to `COc1cc(-c2nc3ncccc3c(=O)n2NCc2ccc(Br)cc2)ccc1C` [Example 13, 3-{[(4-Bromophenyl)methyl]amino}-2-(3-methoxy-4-methylphenyl)-3H,4H-pyrido[2,3-d]pyrimidin-4-one], the pEC50 is not below 5.00.
The result for `COc1cc(-c2nc3ncccc3c(=O)n2NCc2ccc(Cl)cc2)ccc1C` [Example 14, 3-{[(4-Chlorophenyl)methyl]amino}-2-(3-methoxy-4-methylphenyl)-3H,4H-pyrido[2,3-d]pyrimidin-4-one] reads not below 5.00; that for `COc1cc(-c2nc3ncccc3c(=O)n2NCc2ccc(Cl)cc2)ccc1O` [Example 15, 3-{[(4-Chlorophenyl)methyl]amino}-2-(4-hydroxy-3-methoxyphenyl)-3H,4H-pyrido[2,3-d]pyrimidin-4-one], not below 5.00.
Turning to `COc1cncc(-c2nc3cnccc3c(=O)n2NCc2ccc(Cl)cc2)c1` [Example 16, 3-{[(4-Chlorophenyl)methyl]amino}-2-(5-methoxypyridin-3-yl)-3H,4H-pyrido[3,4-d]pyrimidin-4-one], the pEC50 was not below 5.00.
In the case of `O=c1c2ccncc2nc(-c2ccc(F)cc2)n1NCc1ccc(Br)cc1` [Example 17, 3-{[(4-Bromophenyl)methyl]amino}-2-(4-fluorophenyl)-3H,4H-pyrido[3,4-d]pyrimidin-4-one] it was not below 5.00.
In the case of `O=c1c2ccncc2nc(-c2cncc(Cl)c2)n1NCc1ccc(Cl)cc1` [Example 18, 3-{[(4-Chlorophenyl)methyl]amino}-2-(5-chloropyridin-3-yl)-3H,4H-pyrido[3,4-d]pyrimidin-4-one] it was not below 5.00; in that of `Cc1cc(-c2nc3cnccc3c(=O)n2NCc2ccc(Cl)cc2)ccc1[N+](=O)[O-]` [Example 19, 3-{[(4-Chlorophenyl)methyl]amino}-2-(3-methyl-4-nitrophenyl)-3H,4H-pyrido[3,4-d]pyrimidin-4-one], not below 5.00.
In the case of `Cc1cc(-c2nc3cnccc3c(=O)n2NCc2ccc(Cl)cc2)ccc1N` [Example 20, 2-(4-Amino-3-methylphenyl)-3-{[(4-chlorophenyl)methyl]amino}-3H,4H-pyrido[3,4-d]pyrimidin-4-one] it was not below 5.00; in that of `Cc1cc(-c2nc3cnccc3c(=O)n2NCc2ccc(Cl)cc2)ccc1O` [Example 21, 3-{[(4-Chlorophenyl)methyl]amino}-2-(4-hydroxy-3-methylphenyl)-3H,4H-pyrido[3,4-d]pyrimidin-4-one], not below 5.00; in that of `COc1cc(-c2nc3cnccc3c(=O)n2NCc2ccc(Cl)cc2)ccc1O` [Example 22, 3-{[(4-Chlorophenyl)methyl]amino}-2-(4-hydroxy-3-methoxyphenyl)-3H,4H-pyrido[3,4-d]pyrimidin-4-one], not below 5.00.
`O=c1c2cnccc2nc(-c2ccc(F)cc2)n1NCc1ccc(Cl)cc1` [Example 23, 3-{[(4-Chlorophenyl)methyl]amino}-2-(4-fluorophenyl)-3H,4H-pyrido[4,3-d]pyrimidin-4-one]: the pEC50 was not below 5.00.
In the case of `O=c1c2ncccc2nc(-c2ccc(F)cc2)n1NCc1ccc(Br)cc1` [Example 25, 3-{[(4-Bromophenyl)methyl]amino}-2-(4-fluorophenyl)-3H,4H-pyrido[3,2-d]pyrimidin-4-one] it was not below 5.00; in that of `O=c1c2ccsc2nc(-c2ccc(O)cc2)n1NCc1ccc(Br)cc1` [Example 26, 3-{[(4-Bromophenyl)methyl]amino}-2-(4-hydroxyphenyl)-3H,4H-thieno[2,3-d]pyrimidin-4-one], not below 5.00.
In the case of `COc1cncc(-c2nc3ccsc3c(=O)n2NCc2ccc(Cl)cc2)c1` [Example 27, 3-{[(4-Chlorophenyl)methyl]amino}-2-(5-methoxypyridin-3-yl)-3H,4H-thieno[3,2-d]pyrimidin-4-one] it was not below 5.00.
The result for `COc1cncc(-c2nc3ccsc3c(=O)n2NCC2CCC2)c1` [Example 28, 3-[(Cyclobutylmethyl)amino]-2-(5-methoxypyridin-3-yl)-3H,4H-thieno[3,2-d]pyrimidin-4-one] reads not below 5.00.
With `COc1cncc(-c2nc3nccnc3c(=O)n2NCc2ccc(Cl)cc2)c1` [Example 29, 3-{[(4-Chlorophenyl)methyl]amino}-2-(5-methoxypyridin-3-yl)-3,4-dihydropteridin-4-one], the pEC50 is not below 5.00.
The result for `O=c1c2cncnc2nc(-c2ccc(F)cc2)n1NCc1ccc(Cl)cc1` [Example 30, 3-{[(4-Chlorophenyl)methyl]amino}-2-(4-fluorophenyl)-3H,4H-pyrimido[4,5-d][1,3]diazin-4-one] reads not below 5.00.
The result for `O=c1c2ccsc2nc(-c2ccc(F)cc2)n1NCc1ccc(Br)cc1` [Example 31, 3-{[(4-Bromophenyl)methyl]amino}-2-(4-fluorophenyl)-3H,4H-thieno[2,3-d]pyrimidin-4-one] reads not below 5.00.
In the case of `O=c1c2ccsc2nc(-c2ccc(F)cc2)n1NCc1ccc(Cl)cc1` [Example 32, 3-{[(4-Chlorophenyl)methyl]amino}-2-(4-fluorophenyl)-3H,4H-thieno[2,3-d]pyrimidin-4-one] it was not below 5.00.
